Source: the kinase profiling compilation of Christmann-Franck et al. (2016)

Key:
Test in all cases: KINOMEscan competition binding
Details in all cases: compound 10.0 µM
[1] = molecular target: AAK1 (human) (UniProt Q2M2I8)
[2] = molecular target: ABL2 (human) (UniProt P42684)
[3] = molecular target: ACVR1 (human) (UniProt Q04771)
[4] = molecular target: ADCK4 (human) (UniProt Q96D53)
[5] = molecular target: AXL (human) (UniProt P30530)
[6] = molecular target: CAMK1G (human) (UniProt Q96NX5)
[7] = molecular target: EPHA7 (human) (UniProt Q15375)
[8] = molecular target: EPHB4 (human) (UniProt P54760)
[9] = molecular target: FGFR4 (human) (UniProt P22455)
[10] = system: FLT3 (human), P36888 [ITD]
[11] = molecular target: HCK (human) (UniProt P08631)
[12] = molecular target: IGF1R (human) (UniProt P08069)
[13] = molecular target: IKBKB (human) (UniProt O14920)
[14] = molecular target: ITK (human) (UniProt Q08881)
[15] = molecular target: JAK1 JH2 pseudokinase (human) (UniProt P23458)
[16] = molecular target: LIMK1 (human) (UniProt P53667)
[17] = molecular target: MARK4 (human) (UniProt Q96L34)
[18] = molecular target: MYO3A (human) (UniProt Q8NEV4)
[19] = molecular target: NEK1 (human) (UniProt Q96PY6)
[20] = molecular target: PDPK1 (human) (UniProt O15530)
[21] = molecular target: PKMYT1 (human) (UniProt Q99640)
[22] = molecular target: PKN1 (human) (UniProt Q16512)
[23] = molecular target: PKN2 (human) (UniProt Q16513)
[24] = molecular target: PLK4 (human) (UniProt O00444)
[25] = molecular target: PRKCD (human) (UniProt Q05655)
[26] = molecular target: PRKD3 (human) (UniProt O94806)
[27] = molecular target: PTK2 (human) (UniProt Q05397)
[28] = molecular target: RIOK3 (human) (UniProt O14730)
[29] = molecular target: RPS6KA2 KD2 (human) (UniProt Q15349)
[30] = molecular target: RPS6KA4 KD1 (human) (UniProt O75676)
[31] = molecular target: SRPK3 (human) (UniProt Q9UPE1)
[32] = molecular target: STK25 (human) (UniProt O00506)
[33] = molecular target: STK3 (human) (UniProt Q13188)
[34] = molecular target: STK32C (human) (UniProt Q86UX6)
[35] = molecular target: TEC (human) (UniProt P42680)
[36] = molecular target: TGFBR1 (human) (UniProt P36897)
[37] = molecular target: TNK1 (human) (UniProt Q13470)
[38] = molecular target: ULK2 (human) (UniProt Q8IYT8)
[39] = molecular target: WEE2 (human) (UniProt P0C1S8)
[40] = molecular target: ZAP70 (human) (UniProt P43403)

FLT3 (human), P36888 [ITD], sequence (P36888 whole entry, looked up, change not shown): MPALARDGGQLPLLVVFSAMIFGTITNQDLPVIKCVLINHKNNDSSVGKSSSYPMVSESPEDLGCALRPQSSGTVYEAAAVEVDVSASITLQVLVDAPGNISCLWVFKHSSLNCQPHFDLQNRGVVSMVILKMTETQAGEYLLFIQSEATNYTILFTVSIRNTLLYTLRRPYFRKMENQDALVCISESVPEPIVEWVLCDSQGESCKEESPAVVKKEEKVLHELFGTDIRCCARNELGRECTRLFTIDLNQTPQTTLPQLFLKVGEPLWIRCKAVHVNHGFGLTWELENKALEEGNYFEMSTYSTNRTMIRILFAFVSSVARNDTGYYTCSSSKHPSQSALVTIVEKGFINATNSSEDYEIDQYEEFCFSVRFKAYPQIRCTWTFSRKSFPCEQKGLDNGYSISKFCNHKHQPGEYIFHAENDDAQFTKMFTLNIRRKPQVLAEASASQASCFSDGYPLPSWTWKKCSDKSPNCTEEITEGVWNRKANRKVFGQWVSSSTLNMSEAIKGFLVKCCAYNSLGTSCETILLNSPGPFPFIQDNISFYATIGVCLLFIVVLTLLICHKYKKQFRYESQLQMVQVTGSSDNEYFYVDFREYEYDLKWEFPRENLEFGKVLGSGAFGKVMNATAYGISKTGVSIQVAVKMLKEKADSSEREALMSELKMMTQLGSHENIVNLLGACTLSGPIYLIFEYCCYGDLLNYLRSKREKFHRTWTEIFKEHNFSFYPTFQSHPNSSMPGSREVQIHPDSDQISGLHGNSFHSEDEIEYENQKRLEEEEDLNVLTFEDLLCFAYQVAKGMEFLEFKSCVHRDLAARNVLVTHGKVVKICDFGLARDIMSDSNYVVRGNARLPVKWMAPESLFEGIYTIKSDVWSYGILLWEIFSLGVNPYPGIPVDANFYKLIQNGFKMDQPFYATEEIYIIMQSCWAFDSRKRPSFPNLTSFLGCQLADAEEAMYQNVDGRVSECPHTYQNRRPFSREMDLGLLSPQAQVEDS
IKBKB (human), sequence (O14920 whole entry, looked up): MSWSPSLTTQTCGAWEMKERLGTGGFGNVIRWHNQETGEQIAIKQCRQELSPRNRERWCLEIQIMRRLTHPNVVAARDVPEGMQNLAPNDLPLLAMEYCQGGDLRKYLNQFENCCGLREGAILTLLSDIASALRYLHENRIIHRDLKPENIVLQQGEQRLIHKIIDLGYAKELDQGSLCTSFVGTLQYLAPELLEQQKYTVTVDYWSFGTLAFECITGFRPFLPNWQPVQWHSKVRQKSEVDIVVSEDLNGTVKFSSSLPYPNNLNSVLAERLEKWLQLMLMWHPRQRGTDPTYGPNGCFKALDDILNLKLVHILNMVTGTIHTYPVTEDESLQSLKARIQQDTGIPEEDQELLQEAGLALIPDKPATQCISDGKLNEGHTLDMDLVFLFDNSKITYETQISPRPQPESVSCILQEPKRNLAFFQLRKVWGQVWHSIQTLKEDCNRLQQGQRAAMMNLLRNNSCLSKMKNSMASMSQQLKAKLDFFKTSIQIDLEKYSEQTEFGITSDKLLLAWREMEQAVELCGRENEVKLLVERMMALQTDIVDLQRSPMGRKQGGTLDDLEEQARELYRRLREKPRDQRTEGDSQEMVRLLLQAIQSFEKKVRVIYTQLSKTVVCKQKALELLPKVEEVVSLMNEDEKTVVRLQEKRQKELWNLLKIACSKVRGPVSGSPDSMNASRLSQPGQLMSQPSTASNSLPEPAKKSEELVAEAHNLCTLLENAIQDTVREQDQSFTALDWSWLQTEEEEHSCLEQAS
ACVR1 (human), sequence (Q04771 whole entry, looked up): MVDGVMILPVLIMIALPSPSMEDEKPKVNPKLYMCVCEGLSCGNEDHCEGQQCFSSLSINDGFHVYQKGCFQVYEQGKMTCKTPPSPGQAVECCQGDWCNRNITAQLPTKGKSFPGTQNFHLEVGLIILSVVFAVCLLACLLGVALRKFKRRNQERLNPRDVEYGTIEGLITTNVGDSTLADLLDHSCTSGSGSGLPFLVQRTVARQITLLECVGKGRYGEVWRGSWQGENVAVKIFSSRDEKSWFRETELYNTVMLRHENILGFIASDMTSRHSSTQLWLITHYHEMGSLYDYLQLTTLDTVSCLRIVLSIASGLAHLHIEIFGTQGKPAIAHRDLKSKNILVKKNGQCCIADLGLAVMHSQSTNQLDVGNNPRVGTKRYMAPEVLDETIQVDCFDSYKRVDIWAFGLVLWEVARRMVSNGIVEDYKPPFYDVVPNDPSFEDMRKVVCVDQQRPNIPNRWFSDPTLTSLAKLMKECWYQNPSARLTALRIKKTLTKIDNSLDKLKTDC
AXL (human), sequence (P30530 whole entry, looked up): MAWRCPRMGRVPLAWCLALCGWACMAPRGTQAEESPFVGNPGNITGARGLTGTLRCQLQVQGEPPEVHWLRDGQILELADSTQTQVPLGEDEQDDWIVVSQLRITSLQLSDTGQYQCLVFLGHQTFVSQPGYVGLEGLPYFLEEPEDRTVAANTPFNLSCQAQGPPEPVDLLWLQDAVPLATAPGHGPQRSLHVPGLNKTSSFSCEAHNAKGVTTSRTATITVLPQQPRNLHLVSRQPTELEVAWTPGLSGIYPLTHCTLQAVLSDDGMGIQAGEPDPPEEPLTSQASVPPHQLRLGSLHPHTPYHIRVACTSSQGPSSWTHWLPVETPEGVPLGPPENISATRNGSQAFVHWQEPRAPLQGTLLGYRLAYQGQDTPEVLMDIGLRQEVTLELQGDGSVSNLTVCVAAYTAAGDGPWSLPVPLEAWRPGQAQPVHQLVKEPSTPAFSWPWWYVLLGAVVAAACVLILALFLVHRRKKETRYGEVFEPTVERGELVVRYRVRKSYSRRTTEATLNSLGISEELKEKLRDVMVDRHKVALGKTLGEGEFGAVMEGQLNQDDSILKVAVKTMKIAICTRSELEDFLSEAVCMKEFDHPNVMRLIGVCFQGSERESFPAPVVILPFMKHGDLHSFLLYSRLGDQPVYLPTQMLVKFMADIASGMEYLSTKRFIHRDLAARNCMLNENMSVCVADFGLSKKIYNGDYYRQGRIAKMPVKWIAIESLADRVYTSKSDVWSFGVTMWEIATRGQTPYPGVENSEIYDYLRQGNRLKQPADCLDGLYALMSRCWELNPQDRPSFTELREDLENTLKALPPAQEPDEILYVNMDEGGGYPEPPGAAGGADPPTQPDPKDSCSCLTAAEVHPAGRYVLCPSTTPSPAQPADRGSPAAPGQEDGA
ULK2 (human), sequence (Q8IYT8 whole entry, looked up): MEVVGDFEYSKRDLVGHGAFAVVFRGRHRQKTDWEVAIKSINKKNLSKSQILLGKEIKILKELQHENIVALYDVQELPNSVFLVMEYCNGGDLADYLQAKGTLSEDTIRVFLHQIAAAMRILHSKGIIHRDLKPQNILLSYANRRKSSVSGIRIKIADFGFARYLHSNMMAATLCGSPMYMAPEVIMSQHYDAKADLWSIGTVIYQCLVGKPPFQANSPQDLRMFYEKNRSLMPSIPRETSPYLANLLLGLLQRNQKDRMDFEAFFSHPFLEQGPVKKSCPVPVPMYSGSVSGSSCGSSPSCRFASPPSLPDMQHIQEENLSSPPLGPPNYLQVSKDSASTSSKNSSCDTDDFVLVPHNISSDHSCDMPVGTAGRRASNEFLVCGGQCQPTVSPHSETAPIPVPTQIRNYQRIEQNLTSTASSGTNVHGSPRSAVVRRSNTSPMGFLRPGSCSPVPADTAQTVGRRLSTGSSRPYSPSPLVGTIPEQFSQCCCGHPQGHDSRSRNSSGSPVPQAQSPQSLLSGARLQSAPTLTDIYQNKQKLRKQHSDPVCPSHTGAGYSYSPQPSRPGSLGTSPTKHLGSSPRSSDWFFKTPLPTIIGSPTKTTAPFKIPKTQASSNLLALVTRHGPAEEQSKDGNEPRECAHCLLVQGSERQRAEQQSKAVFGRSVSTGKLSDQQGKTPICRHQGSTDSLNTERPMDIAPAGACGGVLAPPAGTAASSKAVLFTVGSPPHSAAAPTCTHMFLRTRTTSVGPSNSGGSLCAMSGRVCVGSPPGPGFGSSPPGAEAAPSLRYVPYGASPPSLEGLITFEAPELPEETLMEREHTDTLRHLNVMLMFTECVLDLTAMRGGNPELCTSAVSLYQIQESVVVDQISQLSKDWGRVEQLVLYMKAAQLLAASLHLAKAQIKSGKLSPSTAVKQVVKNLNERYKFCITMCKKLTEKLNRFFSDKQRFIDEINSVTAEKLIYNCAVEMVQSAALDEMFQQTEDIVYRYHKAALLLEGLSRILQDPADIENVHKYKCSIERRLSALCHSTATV
MARK4 (human), sequence (Q96L34 whole entry, looked up): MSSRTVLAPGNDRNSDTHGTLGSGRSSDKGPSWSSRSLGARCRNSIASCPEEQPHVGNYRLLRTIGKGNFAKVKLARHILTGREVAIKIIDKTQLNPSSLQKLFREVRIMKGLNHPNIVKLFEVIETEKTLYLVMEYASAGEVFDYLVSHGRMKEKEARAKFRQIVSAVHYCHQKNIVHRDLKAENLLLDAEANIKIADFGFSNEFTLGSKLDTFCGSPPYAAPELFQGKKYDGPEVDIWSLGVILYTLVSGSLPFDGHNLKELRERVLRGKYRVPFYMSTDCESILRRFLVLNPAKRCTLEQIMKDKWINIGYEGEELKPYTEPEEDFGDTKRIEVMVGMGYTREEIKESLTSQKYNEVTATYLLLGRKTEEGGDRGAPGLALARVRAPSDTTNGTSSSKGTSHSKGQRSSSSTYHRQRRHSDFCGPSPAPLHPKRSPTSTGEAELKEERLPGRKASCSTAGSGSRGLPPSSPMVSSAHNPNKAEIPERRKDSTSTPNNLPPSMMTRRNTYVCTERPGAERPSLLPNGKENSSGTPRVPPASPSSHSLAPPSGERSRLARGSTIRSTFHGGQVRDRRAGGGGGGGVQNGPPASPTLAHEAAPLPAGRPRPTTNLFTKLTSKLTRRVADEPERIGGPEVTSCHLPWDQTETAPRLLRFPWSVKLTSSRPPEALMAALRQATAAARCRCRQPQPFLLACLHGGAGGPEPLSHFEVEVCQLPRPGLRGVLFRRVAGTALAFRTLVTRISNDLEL

Row | SMILES | kinase still bound, per cent of control [1] [%] | kinase still bound, per cent of control [2] [%] | kinase still bound, per cent of control [3] [%] | kinase still bound, per cent of control [4] [%] | kinase still bound, per cent of control [5] [%] | kinase still bound, per cent of control [6] [%] | kinase still bound, per cent of control [7] [%] | kinase still bound, per cent of control [8] [%] | kinase still bound, per cent of control [9] [%] | kinase still bound, per cent of control [10] [%] | kinase still bound, per cent of control [11] [%] | kinase still bound, per cent of control [12] [%] | kinase still bound, per cent of control [13] [%] | kinase still bound, per cent of control [14] [%] | kinase still bound, per cent of control [15] [%] | kinase still bound, per cent of control [16] [%] | kinase still bound, per cent of control [17] [%] | kinase still bound, per cent of control [18] [%] | kinase still bound, per cent of control [19] [%] | kinase still bound, per cent of control [20] [%] | other results
1 | O=C1Nc2ccc(I)cc2/C1=C/c1cc(Br)c(O)c(Br)c1 | 5.2 | 66 | 31 | 65 | 100 | 44 | 100 | 100 | 100 | 33 | 81 | 97 | 100 | 96 | 0.55 | 100 | 100 | 2.5 | 87 | 100 | kinase still bound, per cent of control [21]: 79%; kinase still bound, per cent of control [22]: 89%; kinase still bound, per cent of control [23]: 99%; kinase still bound, per cent of control [24]: 26%; kinase still bound, per cent of control [25]: 70%; kinase still bound, per cent of control [26]: 100%; kinase still bound, per cent of control [27]: 98%; kinase still bound, per cent of control [28]: 17%; kinase still bound, per cent of control [29]: 45%; kinase still bound, per cent of control [30]: 87%; kinase still bound, per cent of control [31]: 7.8%; kinase still bound, per cent of control [32]: 100%; kinase still bound, per cent of control [33]: 3.3%; kinase still bound, per cent of control [34]: 98%; kinase still bound, per cent of control [35]: 100%; kinase still bound, per cent of control [36]: 10%; kinase still bound, per cent of control [37]: 100%; kinase still bound, per cent of control [38]: 90%; kinase still bound, per cent of control [39]: 94%; kinase still bound, per cent of control [40]: 84%
2 | CN(C)C/C=C/C(=O)Nc1cccc(Nc2ncc3c(n2)N(C)c2ccccc2C(=O)N3C)c1 | 20 | 1.4 | 45 | 100 | 7 | 52 | 100 | 83 | 22 | 9.4 | 13 | 100 | 100 | 58 | 0.25 | 71 | 1.5 | 100 | 69 | 86 | kinase still bound, per cent of control [21]: 100%; kinase still bound, per cent of control [22]: 69%; kinase still bound, per cent of control [23]: 64%; kinase still bound, per cent of control [24]: 0%; kinase still bound, per cent of control [25]: 100%; kinase still bound, per cent of control [26]: 19%; kinase still bound, per cent of control [27]: 14%; kinase still bound, per cent of control [28]: 16%; kinase still bound, per cent of control [29]: 21%; kinase still bound, per cent of control [30]: 59%; kinase still bound, per cent of control [31]: 63%; kinase still bound, per cent of control [32]: 66%; kinase still bound, per cent of control [33]: 0%; kinase still bound, per cent of control [34]: 93%; kinase still bound, per cent of control [35]: 97%; kinase still bound, per cent of control [36]: 25%; kinase still bound, per cent of control [37]: 0.4%; kinase still bound, per cent of control [38]: 0.2%; kinase still bound, per cent of control [39]: 97%; kinase still bound, per cent of control [40]: 60%
